According to patent publication US6355799B1, “Substituted benzene compounds, process for their preparation, and herbicidal and defoliant compositions containing them” (ISK Americas Incorporated, priority 1997, dated 2002):

Assays:
Assay type in all cases: in vivo
[1] = test system: redroot pigweed (Amaranthus retroflexus, AMARE); experiment: Pre-emerge test, greenhouse herbicide activity screening; details: phytotoxicity rating 0-100, 14 days after application
Method in brief: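 Rating: 0–100 visual injury, 14 DAA. Application: acetone, 187 l/ha, 15–1000 g ai/ha, flat-fan track sprayer with nozzle 40–45 cm above soil or canopy. Post-emerge runs used 0.25% v/v surfactant on 2–3 leaf plants.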

[2] = test system: barnyardgrass (Echinochloa crus-galli, ECHCG); experiment: as above; details: phytotoxicity rating 0-100, 14 days after application
Method in brief: (§1)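 Applied at 15–1000 g ai/ha from acetone in 187 l/ha spray volume. Post-emergence applications included 0.25% v/v non-ionic surfactant and reached plants sown 8–21 days before. Pre-emergence applications were incorporated by surface watering. Efficacy or crop damage was rated on a 0–100 scale after 14 days.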

[3] = test system: green foxtail (Setaria viridis, SETVI); experiment: as above; details: phytotoxicity rating 0-100, 14 days after application
Method in brief: as §1

[4] = test system: ivyleaf morningglory (Ipomoea hederacea, IPOHE); experiment: as above; details: phytotoxicity rating 0-100, 14 days after application
Method in brief: as §1

[5] = test system: johnsongrass (Sorghum halepense, SORHA); experiment: as above; details: phytotoxicity rating 0-100, 14 days after application
Method in brief: as §1

[6] = test system: lambsquarters (Chenopodium album, CHEAL); experiment: as above; details: phytotoxicity rating 0-100, 14 days after application
Method in brief: as §1

[7] = test system: large crabgrass (Digitaria sanguinalis, DIGSA); experiment: as above; details: phytotoxicity rating 0-100, 14 days after application
Method in brief: as §1

[8] = test system: sicklepod (Cassia obtusifolia, CASOB); experiment: as above; details: phytotoxicity rating 0-100, 14 days after application
Method in brief: as §1

[9] = test system: velvetleaf (Abutilon theophrasti, ABUTH); experiment: as above; details: phytotoxicity rating 0-100, 14 days after application
Method in brief: as §1

[10] = test system: field corn (Zea mays L., var. Dekalb 535, CORN); experiment: Pre-emerge test, crop safety; details: crop damage rating 0-100, 14 days after application
Method in brief: (§2)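 Compounds in acetone were track-sprayed at 15-1000 g ai/ha (187 l/ha) on sandy loam pots: pre-emerge one day after seeding, post-emerge at 2-3 leaf stage with 0.25% v/v non-ionic surfactant. Phytotoxicity was rated 14 days later on a 0 (no damage) to 100 (complete death) scale.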

[11] = test system: upland rice (Oryza sp., var. Tebonnet, RICE); experiment: Pre-emerge test, crop safety; details: crop damage rating 0-100, 14 days after application
Method in brief: as §2

[12] = test system: barnyardgrass (Echinochloa crus-galli, ECHCG); experiment: Post-emerge test, greenhouse herbicide activity screening; details: post-emerge, 14 days after application, rating scale 0-100
Method in brief: (§3)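 Plants grown in 10 cm pots of sandy loam mix received acetone-dissolved compounds through a moving flat-fan nozzle. Doses ranged from 15 to 1000 g ai/ha. Pre-emerge pots were seeded one day earlier, post-emerge pots 8–21 days earlier. Fourteen days on, each pot was graded 0–100 for damage.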

[13] = test system: green foxtail (Setaria viridis, SETVI); experiment: as above; details: post-emerge, 14 days after application, rating scale 0-100
Method in brief: as §3

[14] = test system: ivyleaf morningglory (Ipomoea hederacea, IPOHE); experiment: as above; details: post-emerge, 14 days after application, rating scale 0-100
Method in brief: as §3

[15] = test system: johnsongrass (Sorghum halepense, SORHA); experiment: as above; details: post-emerge, 14 days after application, rating scale 0-100
Method in brief: as §3

[16] = test system: lambsquarters (Chenopodium album, CHEAL); experiment: as above; details: post-emerge, 14 days after application, rating scale 0-100
Method in brief: as §3

[17] = test system: large crabgrass (Digitaria sanguinalis, DIGSA); experiment: as above; details: post-emerge, 14 days after application, rating scale 0-100
Method in brief: as §3

[18] = test system: redroot pigweed (Amaranthus retroflexus, AMARE); experiment: as above; details: post-emerge, 14 days after application
Method in brief: as §3

[19] = test system: sicklepod (Cassia obtusifolia, CASOB); experiment: as above; details: post-emerge, 14 days after application, rating scale 0-100
Method in brief: as §3

[20] = test system: velvetleaf (Abutilon theophrasti, ABUTH); experiment: as above; details: post-emerge, 14 days after application, rating scale 0-100
Method in brief: as §3

[21] = test system: field corn (Zea mays L., var. Dekalb 535, CORN); experiment: Post-emerge test, crop safety; details: post-emerge, 14 days after application, rating scale 0-100
Method in brief: as §1

[22] = test system: upland rice (Oryza sp., var. Tebonnet, RICE); experiment: Post-emerge test, crop safety; details: post-emerge, 14 days after application, rating scale 0-100
Method in brief: as §1

Cc1c(Cl)cc(F)c(-n2c(=O)cc(C(F)(F)F)n(C)c2=O)c1NC(=O)OCc1ccccc1Cl [4-54]
80: Pre-emerge Herbicidal Activity SORHA ([5]; 250 g ai/ha) | Pre-emerge Herbicidal Activity CASOB ([8]; 250 g ai/ha) | phytotoxicity rating ECHCG ([12]; 250 g ai/ha) | phytotoxicity rating SETVI ([13]; 63 g ai/ha)
30: Pre-emerge Herbicidal Activity IPOHE ([4]; 63 g ai/ha) | Pre-emerge Herbicidal Activity SORHA ([5]; 63 g ai/ha) | Pre-emerge Herbicidal Activity CASOB ([8]; 63 g ai/ha) | phytotoxicity rating DIGSA ([17]; 63 g ai/ha)
50: Pre-emerge Herbicidal Activity ECHCG ([2]; 63 g ai/ha)
100: Pre-emerge Herbicidal Activity AMARE ([1]; 63 g ai/ha) | Pre-emerge Herbicidal Activity AMARE ([1]; 250 g ai/ha) | Pre-emerge Herbicidal Activity SETVI ([3]; 250 g ai/ha) | Pre-emerge Herbicidal Activity CHEAL ([6]; 250 g ai/ha) | Pre-emerge Herbicidal Activity DIGSA ([7]; 250 g ai/ha) | Pre-emerge Herbicidal Activity ABUTH ([9]; 63 g ai/ha) | phytotoxicity rating IPOHE ([14]; 63 g ai/ha) | phytotoxicity rating IPOHE ([14]; 250 g ai/ha) | phytotoxicity rating CHEAL ([16]; 63 g ai/ha) | phytotoxicity rating CHEAL ([16]; 250 g ai/ha) | phytotoxicity rating AMARE ([18]; 63 g ai/ha, rating scale 0-100 (0 no damage, 100 complete death)) | phytotoxicity rating AMARE ([18]; 250 g ai/ha, rating scale 0-100) | phytotoxicity rating CASOB ([19]; 250 g ai/ha) | phytotoxicity rating ABUTH ([20]; 63 g ai/ha) | phytotoxicity rating ABUTH ([20]; 250 g ai/ha) | phytotoxicity rating RICE (crop damage) ([22]; 250 g ai/ha)
5: Pre-emerge Herbicidal Activity CORN ([10]; 250 g ai/ha)
90: Pre-emerge Herbicidal Activity SETVI ([3]; 63 g ai/ha) | Pre-emerge Herbicidal Activity CHEAL ([6]; 63 g ai/ha) | Pre-emerge Herbicidal Activity ABUTH ([9]; 250 g ai/ha) | phytotoxicity rating SETVI ([13]; 250 g ai/ha) | phytotoxicity rating CASOB ([19]; 63 g ai/ha) | phytotoxicity rating RICE (crop damage) ([22]; 63 g ai/ha)
40: phytotoxicity rating SORHA ([15]; 63 g ai/ha) | phytotoxicity rating CORN (crop damage) ([21]; 63 g ai/ha)
75: phytotoxicity rating CORN (crop damage) ([21]; 250 g ai/ha)
10: Pre-emerge Herbicidal Activity RICE ([11]; 63 g ai/ha)
70: Pre-emerge Herbicidal Activity IPOHE ([4]; 250 g ai/ha) | phytotoxicity rating ECHCG ([12]; 63 g ai/ha) | phytotoxicity rating SORHA ([15]; 250 g ai/ha)
0: Pre-emerge Herbicidal Activity CORN ([10]; 63 g ai/ha)
85: Pre-emerge Herbicidal Activity ECHCG ([2]; 250 g ai/ha)
60: Pre-emerge Herbicidal Activity DIGSA ([7]; 63 g ai/ha) | Pre-emerge Herbicidal Activity RICE ([11]; 250 g ai/ha) | phytotoxicity rating DIGSA ([17]; 250 g ai/ha)
